According to ChEMBL document CHEMBL5154747, “Discovery of new carbonic anhydrase IX inhibitors as anticancer agents by toning the hydrophobic and hydrophilic rims of the active site to encounter the dual-tail approach” (Eur J Med Chem, 2022):

How the values were obtained:
Format in all cases: functional
NCI-H23 = assay: Anticancer activity against human NCI-H23 cells assessed as cell growth inhibition at 10 uM incubated for 48 hrs by SRB assay relative to control; conditions: read-out: GI
SNB-75 = assay: Anticancer activity against human SNB-75 cells assessed as cell growth inhibition at 10 uM incubated for 48 hrs by SRB assay relative to control; conditions: read-out: GI
A498 = assay: Anticancer activity against human A498 cells assessed as cell growth inhibition at 10 uM incubated for 48 hrs by SRB assay relative to control; conditions: read-out: GI
NCI-H322M [1] = assay: Anticancer activity against human NCI-H322M cells assessed as cell growth inhibition incubated for 48 hrs by SRB assay; conditions: for CC50: read-out: LC50 (the source's name)
EKVX = assay: Anticancer activity against human EKVX cells assessed as cell growth inhibition incubated for 48 hrs by SRB assay; conditions: for CC50: read-out: LC50 (the source's name)
DU-145 = assay: Anticancer activity against human DU-145 cells assessed as cell growth inhibition at 10 uM incubated for 48 hrs by SRB assay relative to control; conditions: read-out: GI
M14 = assay: Anticancer activity against human M14 cells assessed as cell growth inhibition incubated for 48 hrs by SRB assay
UO-31 = assay: Anticancer activity against human UO-31 cells assessed as cell growth inhibition incubated for 48 hrs by SRB assay; conditions: for CC50: read-out: LC50 (the source's name)
OVCAR-3 = assay: Anticancer activity against human OVCAR-3 cells assessed as cell growth inhibition incubated for 48 hrs by SRB assay
SK-MEL-28 = assay: Anticancer activity against human SK-MEL-28 cells assessed as cell growth inhibition at 10 uM incubated for 48 hrs by SRB assay relative to control; conditions: read-out: GI
K562 = assay: Anticancer activity against human K562 cells assessed as cell growth inhibition at 10 uM incubated for 48 hrs by SRB assay relative to control; conditions: read-out: GI
SR = assay: Anticancer activity against human SR cells assessed as cell growth inhibition incubated for 48 hrs by SRB assay; conditions: for CC50: read-out: LC50 (the source's name)
ACHN = assay: Anticancer activity against human ACHN cells assessed as cell growth inhibition incubated for 48 hrs by SRB assay
NCI/ADR-RES = assay: Anticancer activity against human NCI/ADR-RES cells assessed as cell growth inhibition incubated for 48 hrs by SRB assay; conditions: for CC50: read-out: LC50 (the source's name)
786-0 = assay: Anticancer activity against human 786-0 cells assessed as cell growth inhibition incubated for 48 hrs by SRB assay; conditions: for CC50: read-out: LC50 (the source's name)
SF-295 = assay: Anticancer activity against human SF-295 cells assessed as cell growth inhibition at 10 uM incubated for 48 hrs by SRB assay relative to control; conditions: read-out: GI
UACC-257 = assay: Anticancer activity against human UACC-257 cells assessed as cell growth inhibition incubated for 48 hrs by SRB assay
SW-620 = assay: Anticancer activity against human SW-620 cells assessed as cell growth inhibition at 10 uM incubated for 48 hrs by SRB assay relative to control; conditions: read-out: GI
CAKI-1 = assay: Anticancer activity against human CAKI-1 cells assessed as cell growth inhibition at 10 uM incubated for 48 hrs by SRB assay relative to control; conditions: read-out: GI
SK-MEL-5 = assay: Anticancer activity against human SK-MEL-5 cells assessed as cell growth inhibition incubated for 48 hrs by SRB assay
OVCAR-4 [2] = assay: Anticancer activity against human OVCAR-4 cells assessed as cell growth inhibition at 10 uM incubated for 48 hrs by SRB assay relative to control; conditions: read-out: GI
HT-29 = assay: Anticancer activity against human HT-29 cells assessed as cell growth inhibition at 10 uM incubated for 48 hrs by SRB assay relative to control; conditions: read-out: GI
HCT-15 [3] = assay: Anticancer activity against human HCT-15 cells assessed as cell growth inhibition at 10 uM incubated for 48 hrs by SRB assay relative to control; conditions: read-out: GI
HOP-92 = assay: Anticancer activity against human HOP-92 cells assessed as cell growth inhibition at 10 uM incubated for 48 hrs by SRB assay relative to control; conditions: read-out: GI
OVCAR-4 [4] = assay: Anticancer activity against human OVCAR-4 cells assessed as cell growth inhibition incubated for 48 hrs by SRB assay
NCI-H522 = assay: Anticancer activity against human NCI-H522 cells assessed as cell growth inhibition at 10 uM incubated for 48 hrs by SRB assay relative to control; conditions: read-out: GI
SNB-19 = assay: Anticancer activity against human SNB-19 cells assessed as cell growth inhibition incubated for 48 hrs by SRB assay; conditions: for CC50: read-out: LC50 (the source's name)
SK-OV-3 = assay: Anticancer activity against human SK-OV-3 cells assessed as cell growth inhibition at 10 uM incubated for 48 hrs by SRB assay relative to control; conditions: read-out: GI
A549 = assay: Anticancer activity against human A549 cells assessed as cell growth inhibition incubated for 48 hrs by SRB assay
OVCAR-8 = assay: Anticancer activity against human OVCAR-8 cells assessed as cell growth inhibition incubated for 48 hrs by SRB assay
HCT-15 [5] = assay: Anticancer activity against human HCT-15 cells assessed as cell growth inhibition incubated for 48 hrs by SRB assay; conditions: for CC50: read-out: LC50 (the source's name)
SN12C = assay: Anticancer activity against human SN12C cells assessed as cell growth inhibition incubated for 48 hrs by SRB assay
NCI-H322M [6] = assay: Anticancer activity against human NCI-H322M cells assessed as cell growth inhibition at 10 uM incubated for 48 hrs by SRB assay relative to control; conditions: read-out: GI
SF-539 = assay: Anticancer activity against human SF-539 cells assessed as cell growth inhibition at 10 uM incubated for 48 hrs by SRB assay relative to control; conditions: read-out: GI
LOX IMVI = assay: Anticancer activity against human LOX IMVI cells assessed as cell growth inhibition at 10 uM incubated for 48 hrs by SRB assay relative to control; conditions: read-out: GI
RXF 393 = assay: Anticancer activity against human RXF 393 cells assessed as cell growth inhibition at 10 uM incubated for 48 hrs by SRB assay relative to control; conditions: read-out: GI
CCRF-CEM = assay: Anticancer activity against human CCRF-CEM cells assessed as cell growth inhibition at 10 uM incubated for 48 hrs by SRB assay relative to control; conditions: read-out: GI
MDA-MB-435 = assay: Anticancer activity against human MDA-MB-435 cells assessed as cell growth inhibition incubated for 48 hrs by SRB assay
KM12 = assay: Anticancer activity against human KM12 cells assessed as cell growth inhibition incubated for 48 hrs by SRB assay; conditions: for CC50: read-out: LC50 (the source's name)
NCI-H460 = assay: Anticancer activity against human NCI-H460 cells assessed as cell growth inhibition incubated for 48 hrs by SRB assay; conditions: for CC50: read-out: LC50 (the source's name)
[7] = read-out: LC50 (the source's name)

## NS(=O)(=O)c1ccc(Nc2nc(N/N=C/c3ccccn3)nc(Nc3ccccc3)n2)cc1
NCI-H23
  inhibition of growth at 10 µM: 107%
SNB-75
  inhibition of growth at 10 µM: 125%
A498
  inhibition of growth at 10 µM: 167%
NCI-H322M [1]
  GI50: 0.4 µM
  CC50: > 100 µM
EKVX
  GI50: 0.71 µM
  CC50: > 100 µM
DU-145
  inhibition of growth at 10 µM: 95%
M14
  GI50: 0.85 µM
UO-31
  GI50: 1.5 µM
  CC50: 89.5 µM
OVCAR-3
  GI50: 0.46 µM
  LC50 (concentration killing 50% of cells): > 100 µM
SK-MEL-28
  inhibition of growth at 10 µM: 164%
K562
  inhibition of growth at 10 µM: 87%
SR
  GI50: 0.33 µM
  CC50: > 100 µM
ACHN
  GI50: 1.12 µM
NCI/ADR-RES
  GI50: 2.75 µM
  CC50: > 100 µM
786-0
  GI50: 1.06 µM
  CC50: > 100 µM
SF-295
  inhibition of growth at 10 µM: 100%
UACC-257
  GI50: 2.14 µM
  LC50: > 100 µM
SW-620
  inhibition of growth at 10 µM: 117%
CAKI-1
  inhibition of growth at 10 µM: 125%
SK-MEL-5
  GI50: 0.78 µM
  LC50: 4.71 µM
OVCAR-4 [2]
  inhibition of growth at 10 µM: 120%
HT-29
  inhibition of growth at 10 µM: 93%
HCT-15 [3]
  inhibition of growth at 10 µM: 82%
HOP-92
  inhibition of growth at 10 µM: 146%
OVCAR-4 [4]
  GI50: 0.44 µM
  LC50 (concentration killing 50% of cells): > 100 µM
NCI-H522
  inhibition of growth at 10 µM: 132%
SNB-19
  GI50: 0.85 µM
  CC50: > 100 µM
SK-OV-3
  inhibition of growth at 10 µM: 131%
A549
  GI50: 2.29 µM
  LC50: > 100 µM
OVCAR-8
  GI50: 0.44 µM
  LC50: > 100 µM
HCT-15 [5]
  GI50: 1.45 µM
  CC50: > 100 µM
SN12C
  GI50: 1.01 µM
  LC50: > 100 µM
NCI-H322M [6]
  inhibition of growth at 10 µM: 109%
SF-539
  inhibition of growth at 10 µM: 142%
LOX IMVI
  inhibition of growth at 10 µM: 143%
RXF 393
  inhibition of growth at 10 µM: 174%
CCRF-CEM
  inhibition of growth at 10 µM: 94%
MDA-MB-435
  GI50: 0.91 µM
  LC50: 5.93 µM
KM12
  GI50: 2.14 µM
  CC50: > 100 µM
NCI-H460
  GI50: 2.41 µM
  CC50: > 100 µM

## NS(=O)(=O)c1ccc(Nc2nc(N/N=C/c3ccc(C(F)(F)F)cc3)nc(Nc3ccccc3)n2)cc1
NCI-H23
  inhibition of growth at 10 µM: 47%
SNB-75
  inhibition of growth at 10 µM: 58%
A498
  inhibition of growth at 10 µM: 60%
NCI-H322M [1]
  GI50: 3.31 µM
  CC50: 36.1 µM
EKVX
  GI50: 2.62 µM
  CC50: 40.3 µM
DU-145
  inhibition of growth at 10 µM: 60%
M14
  GI50: 2.51 µM
M14; [7]
  CC50: 63.3 µM
UO-31
  GI50: 1.88 µM
  CC50: 15.7 µM
OVCAR-3
  GI50: 3.32 µM
  LC50 (concentration killing 50% of cells): > 100 µM
SK-MEL-28
  inhibition of growth at 10 µM: 72%
K562
  inhibition of growth at 10 µM: 82%
SR
  GI50: 3.07 µM
  CC50: > 100 µM
ACHN
  GI50: 2.68 µM
ACHN; [7]
  CC50: 26.5 µM
NCI/ADR-RES
  GI50: 12.3 µM
  CC50: > 100 µM
786-0
  GI50: 2.22 µM
  CC50: 33.7 µM
SF-295
  inhibition of growth at 10 µM: 95%
UACC-257
  GI50: 2.42 µM
  LC50: 37.2 µM
SW-620
  inhibition of growth at 10 µM: 45%
CAKI-1
  inhibition of growth at 10 µM: 66%
SK-MEL-5
  GI50: 1.74 µM
  LC50: 5.82 µM
OVCAR-4 [2]
  inhibition of growth at 10 µM: 59%
HT-29
  inhibition of growth at 10 µM: 88%
HCT-15 [3]
  inhibition of growth at 10 µM: 68%
HOP-92
  inhibition of growth at 10 µM: 42%
OVCAR-4 [4]
  GI50: 3.69 µM
  LC50 (concentration killing 50% of cells): > 100 µM
NCI-H522
  inhibition of growth at 10 µM: 62%
SNB-19
  GI50: 3.46 µM
  CC50: 40.6 µM
SK-OV-3
  inhibition of growth at 10 µM: 44%
A549
  GI50: 3.11 µM
  LC50: 87.2 µM
OVCAR-8
  GI50: 2.83 µM
  LC50: 35.5 µM
HCT-15 [5]
  GI50: 2.32 µM
  CC50: 52 µM
SN12C
  GI50: 3 µM
  LC50: 86.6 µM
NCI-H322M [6]
  inhibition of growth at 10 µM: 47%
SF-539
  inhibition of growth at 10 µM: 76%
LOX IMVI
  inhibition of growth at 10 µM: 90%
RXF 393
  inhibition of growth at 10 µM: 139%
CCRF-CEM
  inhibition of growth at 10 µM: 88%
MDA-MB-435
  GI50: 2.07 µM
  LC50: 9.53 µM
KM12
  GI50: 2.38 µM
  CC50: 24.8 µM
NCI-H460
  GI50: 3.02 µM
  CC50: > 100 µM
